IC50 data for 29 molecules are collected here from US11512069B2, “TLR7/8 antagonists and uses thereof” (Merck Patent GmbH, priority 2016, dated 2022).

pIC50: −log10 of the molar value.

The target in this assay is T1, TLR7 (Homo sapiens, UniProt Q9NYK1).
T1 construct: expressed in transfected cells; host or cells: HEK cells carrying TLR7 and an NF-kB reporter read with Steady-Glo
T1 sequence (Q9NYK1 27-1049): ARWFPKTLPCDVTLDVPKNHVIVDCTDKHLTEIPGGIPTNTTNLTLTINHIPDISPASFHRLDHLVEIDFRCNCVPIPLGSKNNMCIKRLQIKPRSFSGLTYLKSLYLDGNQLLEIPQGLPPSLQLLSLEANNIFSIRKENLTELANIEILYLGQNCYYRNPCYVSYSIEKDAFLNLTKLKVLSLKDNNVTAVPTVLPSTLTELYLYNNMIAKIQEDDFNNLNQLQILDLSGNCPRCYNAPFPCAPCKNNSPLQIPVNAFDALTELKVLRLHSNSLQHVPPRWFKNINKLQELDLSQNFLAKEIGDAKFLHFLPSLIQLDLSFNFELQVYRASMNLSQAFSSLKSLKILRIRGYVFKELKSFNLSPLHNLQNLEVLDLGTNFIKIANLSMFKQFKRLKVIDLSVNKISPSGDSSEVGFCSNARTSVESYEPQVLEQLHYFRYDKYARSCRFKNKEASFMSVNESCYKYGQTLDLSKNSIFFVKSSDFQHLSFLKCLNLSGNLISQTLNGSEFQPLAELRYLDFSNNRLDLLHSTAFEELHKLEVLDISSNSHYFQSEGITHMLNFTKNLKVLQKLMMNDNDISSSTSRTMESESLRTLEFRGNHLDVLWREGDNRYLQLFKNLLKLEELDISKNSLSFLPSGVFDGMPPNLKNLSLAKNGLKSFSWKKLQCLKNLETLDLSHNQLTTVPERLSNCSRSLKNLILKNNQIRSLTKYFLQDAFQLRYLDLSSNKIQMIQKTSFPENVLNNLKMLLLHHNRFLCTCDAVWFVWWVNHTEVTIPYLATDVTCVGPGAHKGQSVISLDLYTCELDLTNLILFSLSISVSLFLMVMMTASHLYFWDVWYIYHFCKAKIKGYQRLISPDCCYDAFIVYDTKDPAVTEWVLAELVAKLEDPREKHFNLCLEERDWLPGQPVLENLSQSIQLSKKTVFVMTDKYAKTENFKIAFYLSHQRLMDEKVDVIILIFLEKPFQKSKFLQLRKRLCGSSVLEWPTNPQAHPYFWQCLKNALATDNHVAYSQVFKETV
Put plainly: HEK Cell Assay (TLR7/NFKb HEK reporter cells, Steady-Glo). It counts as cell-based. The following applies: compound 30 min, then R*48 agonist 5 hours, Steady-Glo readout, read-out: Potency. Here is the method:
Example 32: HEK Cell Assay
Into 384 CulturePlates (Corning 3707) was placed 5000 c/w of TLR7/NFKb HEK cells in 30 uL DMEM without Phenil red (gibco #31053) and 10% i.a. FCS and 2 mM L-ZGLutamin. The cells were incubated for 24 h at 37 degrees Celsius, 10% carbon dioxide and 90% relative humidity, 3 uL of controls, standards, and compounds were dispensed to wells, incubated for 30 min then 3 uL of R*48 agonist in 20 mM Hepes was added. After incubation for 5 hours, it was allowed to stand at room temperature for 15 min, 10 uL of Steady-Glo substrate reagent was added and shake assay plate for 5 min at 1500 rpm. The assay plate was allowed to sit for 30 min at room temperature and then read plate on EnVision.

Turning to `CC(C)N1CCC(CC(=O)N2C[C@H](C)C[C@H](c3ccc(C#N)c4ncccc34)C2)CC1` [Compound 46, 5-{(3R,5R)-1-[2-(1-Isopropyl-piperidin-4-yl)-acetyl]-5-methyl-piperidin-3-yl}-quinoline-8-carbonitrile], the pIC50 is more than 6.00.

As for `COC(=O)CCN1CC(C)CC(c2ccc(C#N)c3ncccc23)C1` (centres unmarked) [Compound 48, 3-[3-(8-Cyano-quinolin-5-yl)-5-methyl-piperidin-1-yl]-propionic acid methyl ester], the pIC50 was less than 4.70.

As for `Cc1ccc([C@@H]2C[C@@H](C)CN(C(=O)CC3CCN(C)CC3)C2)c2cccnc12` [Compound 80, 1-[(3R,5S)-3-Methyl-5-(8-methyl-quinolin-5-yl)-piperidin-1-yl]-2-(1-methyl-piperidin-4-yl)-ethanone], the pIC50 is more than 6.00.

As to `C[C@@H]1CC(c2ccc(C(F)(F)F)c3ncccc23)CN(C(=O)CCn2cccn2)C1` (some centres unmarked) [Compound 12], the pIC50 is less than 4.70.

As for `C[C@@H]1C[C@@H](c2ccc(C#N)c3ncccc23)CN(C(=O)[C@@H](N)C2CC2)C1` [Compound 60, trans-1-((S)-2-Amino-2-cyclopropyl-acetyl)-5-methyl-piperidin-3-yl-quinoline-8-carbonitrile], the pIC50 is 4.70 to 6.00.

Take `CC1CC(c2ccc(C#N)c3ncccc23)CN(CC2CCN(C)CC2)C1` (centres unmarked) [Compound 52]: the pIC50 is more than 6.00.

Consider `COCCN[C@@H]1C[C@H](C)C[C@@H](c2ccc(C#N)c3nccnc23)C1` (relative stereo) [Compound 134, 8-[(1,trans-3,cis-5)-3-[(2-methoxyethyl)amino]-5-methylcyclohexyl]quinoxaline-5-carbonitrile], for which the pIC50 was 4.70 to 6.00.

Take `COCCN[C@@H]1C[C@H](C)C[C@H](c2ccc(F)c3ncccc23)C1` [Compound 160, (cis-1,3,5)-3-(8-fluoroquinolin-5-yl)-N-(2-methoxyethyl)-5-methylcyclohexan-1-amine]: the pIC50 is less than 4.70.

In the case of `C[C@@H]1C[C@H](c2ccc(C#N)c3ncccc23)CN(Cc2cnn(C)c2)C1` [Compound 106, 5-[(3R,5R)-5-methyl-1-[(1-methylpyrazol-4-yl)methyl]-3-piperidyl]quinoline-8-carbonitrile], the pIC50 was less than 4.70.

Regarding `C[C@@H]1C[C@H](c2ccc(C#N)c3ncccc23)CN(C(=N)N)C1` [Compound 119, (3R,5R)-3-(8-Cyano-quinolin-5-yl)-5-methyl-piperidine-1-carboxamidine], the pIC50 was 4.70 to 6.00.

`C[C@H]1C[C@@H](NC(=O)[C@@H](N)C(F)(F)F)C[C@H](c2ccc(C#N)c3nccnc23)C1` (racemic) [Compound 146, (2S)-2-amino-N-((1,cis-3cis-5,trans)-3-(8-cyanoquinoxalin-5-yl)-5-methylcyclohexyl)-3,3,3-trifluoropropanamide]: the pIC50 is 4.70 to 6.00.

With `C[C@@H]1C[C@H](c2ccc(C(F)(F)F)c3ncccc23)CN(CCO)C1` (relative stereo) [Compound 7], the pIC50 was less than 4.70.

Regarding `C[C@H]1C[C@@H](NC(=O)[C@@H](N)C(F)(F)F)C[C@@H](c2ccc(C#N)c3nccnc23)C1` (racemic) [Compound 143, (2R)-2-amino-N-((cis-1,3,5)-3-(8-cyanoquinoxalin-5-yl)-5-methylcyclohexyl)-3,3,3-trifluoropropanamide], the pIC50 was 4.70 to 6.00.

For the molecule `COCCN[C@H]1C[C@@H](C)C[C@@H](c2ccc(C(F)(F)F)c3nccnc23)C1` [Compound 148, (1S,3S,5R)—N-(2-methoxyethyl)-3-methyl-5-(8-(trifluoromethyl)quinoxalin-5-yl)cyclohexanamine], the pIC50 was 4.70 to 6.00.

As for `C[C@@H]1C[C@H](N)C[C@@H](c2ccc(C#N)c3nccnc23)C1` [Compound 124, 8-((1S,3S,5S)-3-amino-5-methylcyclohexyl)quinoxaline-5-carbonitrile], the pIC50 is less than 4.70.

Take `CC1C[C@@H](c2ccc(C#N)c3ncccc23)CN(C(=O)Cc2cccnc2)C1` (some centres unmarked) [Compound 21]: the pIC50 was less than 4.70.

In the case of `C[C@@H]1C[C@H](c2cc(F)c(C#N)c3ncccc23)CN(C(=O)CC2CCN(C)CC2)C1` [Compound 85, 7-Fluoro-5-{(3R,5R)-5-methyl-1-[2-(1-methyl-piperidin-4-yl)-acetyl]-piperidin-3-yl}-quinoline-8-carbonitrile], the pIC50 is 4.70 to 6.00.

Turning to `C[C@@H]1C[C@@H](c2ccc(C#N)c3ncccc23)CN(C(=O)C2CC(N)C2)C1` (stereo partly drawn) [Compound 99, 5-[(3S,5R)-1-(3-aminocyclobutanecarbonyl)-5-methyl-3-piperidyl]quinoline-8-carbonitrile], the pIC50 is 4.70 to 6.00.

As to `C[C@@H]1C[C@H](c2ccc(C#N)c3ncccc23)CN(C(=O)CC2C3CC2CN(C)C3)C1` (stereo partly drawn) [Compound 93, 5-[(3R,5R)-5-methyl-1-[2-(3-methyl-3-azabicyclo[3.1.1]heptan-6-yl)acetyl]-3-piperidyl]quinoline-8-carbonitrile], the pIC50 was more than 6.00.

On to `C[C@@H]1C[C@@H](c2ccc(C#N)c3ncccc23)CN(CC(=O)NCC2CCN(C)CC2)C1` (relative stereo) [Compound 75, trans-2-[3-(8-Cyano-quinolin-5-yl)-5-methyl-piperidin-1-yl]-N-(1-methyl-piperidin-4-ylmethyl)-acetamide], for which the pIC50 is 4.70 to 6.00.

Take `C[C@@H]1C[C@H](c2ccc(C#N)c3ncccc23)CN(C(=O)CC2CN(C)C2)C1` (relative stereo) [Compound 34, cis-1-Methyl-1-[2-(1-methyl-azetidin-3-yl)-acetyl]-piperidin-3-yl-quinoline-8-carbonitrile]: the pIC50 is 4.70 to 6.00.

Consider `C[C@@H]1C[C@H](c2ccc(C#N)c3ncccc23)CN(C(=O)C[C@H]2CCN(C)CC2(F)F)C1` [Compound 91, 5-{(3R,5R)-1-[2-((R)-3,3-Difluoro-1-methyl-piperidin-4-yl)-acetyl]-5-methyl-piperidin-3-yl}-quinoline-8-carbonitrile], for which the pIC50 is 4.70 to 6.00.

With `CC(C)[C@H](O)C(=O)N[C@@H]1C[C@H](C)C[C@H](c2ccc(C#N)c3nccnc23)C1` [Compound 125, (S)—N-((1R,3S,5R)-3-(8-cyanoquinoxalin-5-yl)-5-methylcyclohexyl)-2-hydroxy-3-methylbutanamide], the pIC50 is more than 6.00.

Consider `C[C@@H]1C[C@H](c2ccc(C#N)c3ncccc23)CN(C(=O)C2CCC(F)(F)CC2)C1` (relative stereo) [Compound 37, cis-5-[1-(4,4-Difluoro-cyclohexanecarbonyl)-5-methyl-piperidin-3-yl]-quinoline-8-carbonitrile], for which the pIC50 is less than 4.70.

For `C[C@@H]1C[C@H](c2ccc(C#N)c3ncccc23)CN(C(=O)c2cnn(C)c2)C1` (relative stereo) [Compound 108, cis-5-Methyl-1-(1-methyl-H-pyrazole-4-carbonyl)-piperidin-3-yl-quinoline-8-carbonitrile], the pIC50 was 4.70 to 6.00.

`C[C@@H]1C[C@H](c2ccc(C(F)(F)F)c3ncccc23)CN(C(=O)NC2CC2)C1` (relative stereo) [Compound 40, cis-Cyclopropyl-3-methyl-5-[8-(trifluoromethyl)-5-quinolyl] piperidine-1-carboxamide]: the pIC50 was 4.70 to 6.00.

As for `C[C@@H]1C[C@@H](c2ccc(C#N)c3ncccc23)CN(CC(=O)N2CCC(N(C)C)CC2)C1` (relative stereo) [Compound 71, trans-5-(1-{2-[4-(dimethylamino)piperidin-1-yl]-2-oxoethyl}-5-methylpiperidin-3-yl) quinoline-8-carbonitrile], the pIC50 was 4.70 to 6.00.

Regarding `C[C@@H]1C[C@@H](c2ccc(C#N)c3ncccc23)CN(CC(=O)Nc2cnn(C)c2)C1` (relative stereo) [Compound 77, trans-2-[3-(8-Cyano-quinolin-5-yl)-5-methyl-piperidin-1-yl]-N-(1-methyl-1H-pyrazol-4-yl)-acetamide], the pIC50 was less than 4.70.

With `C[C@H]1C[C@H](c2ccc(C#N)c3ncccc23)CN(CC(N)=O)C1` (relative stereo) [Compound 66], the pIC50 was less than 4.70.
